Laboratory results: US9572786B2, “Use of capsiate or dihydrocapsidate” (Catholic University Industry Academy Cooperation Foundation, priority 2007, dated 2017)

Assays:
p38 = assay: MAPK signaling after UV, Western blotting: p38; format: cell-based, human; settings: HaCaT cells; 10, 25, 50 μM; 30 minutes after UV irradiation
Protocol: Western blotting was performed in the same manner as in Example 2-1 in order to identify the factor that affects the COX-2 expression regulated by capsiate, except for treating the cells with capsiate at different concentrations (10 μM, 25 μM and 50 μM) prior to UV irradiation, and using rabbit anti-ERK antibody, rabbit anti-p-ERK antibody, rabbit anti-p38 antibody, rabbit anti-p-p38 antibody, rabbit anti-JNK antibody and rabbit anti-p-JNK antibody (cell signaling), and anti-rabbit IgG-HRP conjugation antibody (Zymed) as the secondary antibody, 30 minutes after UV irradiation.

MMP-2 = assay: UV-induced MMP-2 mRNA expression, RT-PCR; format: cell-based, human; settings: HaCaT cells; 10, 25, 50 μM; UV 100 J/m^2; 36 hours
Protocol: The inhibition effect of capsiate on the expression of MMP-2 and MMP-9, which induce angiogenesis, was investigated through measurement of mRNA expression by RT-PCR and protein expression and activity measurement by zymography.
In order to investigate the inhibition effect of capsiate on MMP expression, 5×10^5 HaCaT cells were placed on a 60 mm Petri dish and cultured for 24 hours in DMEM containing 10% FBS. Subsequently, the cells were cultured for 24 hours in DMEM containing 1% FBS until starvation. Then, after treating with capsiate at different concentrations (10 μM, 25 μM, 50 μM) for 30 minutes, followed by washing 3 times with PBS, UV was irradiated at an intensity of 100 J/m^2. Immediately after the UV irradiation, the cells were washed again with PBS and further cultured for 36 hours in DMEM containing 1% FBS, which was treated with capsiate at the same concentration as in the pre-treatment. The degree of intracellular mRNA expression for MMP-2 and MMP-9 was measured by RT-PCR in the same manner as in Example 3. The degree of MMP expression was compared with that of the non-treated group.

VEGF = VEGF expression in mouse skin, Western blotting; format: in vivo; settings: treated prior to UV irradiation
Protocol: In order to investigate the effect of capsiate on various intracellular angiogenesis-related expression factors, the inhibition effect of capsiate on angiogenesis factors induced by UV was evaluated using the mouse tissue of Example 5.
Western blotting was carried out in the same manner as Example 6 using the proteins isolated from the mouse skin tissue of each test group in Example 6, in order to investigate of capsiate on VEGF, which plays an important role in angiogenesis. In order to investigate the level of VEGF expression, VEGF antibody (Santa Cruz, USA) and HRP-conjugated secondary antibody (1:10,000, Zymed) were used.

MMP-9 = MMP-9 mRNA in mouse skin, RT-PCR; format: in vivo; settings: mouse tissue of Example 5; normalized using GAPDH
Protocol: mRNA was extracted from the mouse tissue of each test group of Example 5 and the level of expression thereof was evaluated in order to investigate the effect of capsiate on the expression of MMP-2 and MMP-9 induced by angiogenesis and immune response.
For RNA extraction from the tissue, each mouse tissue was subjected to skin biopsy, quickly frozen in liquid nitrogen and finely ground using a mortar. RNA was extracted from the mouse tissue using Trizol (Invitrogen, USA). PCR (PTC-225 Peltier thermal cycler, MJ Research, USA) was carried out using the RNA as template and using a commercial kit (reverse transcription system, Qiagen, USA). As a result, cDNA for each test group was prepared.
RT-PCR (Rotor Gene 6 series, Corbett Research, Australia) was carried out using thus prepared cDNA as template and using MMP-2 and MMP-9 primers (Qiagen, USA). The level of mRNA expression for MMP was normalized using GAPDH. The level of expression was compared with that of the non-treated group, which was treated with acetone only.

T cells = assay: Proliferation of T cells, thymidine (H3) incorporation; format: cell-based, C57/BL6 mouse; settings: mouse spleen T cells; 25 uM; vs control group
Protocol: T cells were isolated from mouse spleen in order to investigate the effect of capsiate on the proliferation of T cells. Specifically, the spleen of C57/BL6 mouse was taken out and pulverized as single cells. After lysing red blood cells using an RBC lysis buffer (Sigma, USA), other cells were washed 3 times using cell culture medium (RPMI 1640 complete medium). The cell culture medium is prepared by adding 10% FBS, 10 mM HEPES, 100 μg/mL penicillin, 100 μg/mL streptomycin, 2 mM L-glutamine, 1 mM sodium pyruvate and 50 uM 2-mercaptoethanol. From the cells, only the T cells were separated using a T cell enrichment column (R&D, USA).
5×10^5 of the isolated T cells were placed on a 96-well plate and capsiate was treated at a concentration of 25 uM. Proliferation of T cells was induced by adding 0.1 μg/mL α-CD3a and 2 μg/mL α-CD28, or 1 μg/mL α-CD3a and 2 μg/mL α-CD28. The degree of cell proliferation was compared to that of the control group which was not treated with capsiate. Specifically, after culturing the T cells for 24 hours, thymidine (H3) was added at a concentration of 1 uCi per well and the T cells were harvested 16 hours later using a membrane filter (Skatron, England) and a cell harvester. The harvested T cells were lysed in LSC cocktail solution (Ultima Gold, PerkinElmer, USA) and H3's CPM value was measured using a beta counter (Packard, USA).

Lck = assay: Tyrosine phosphorylation in T cells, Western blotting with anti-PY antibody; format: cell-based, C57/BL6 mouse; settings: mouse spleen T cells; 5 and 25 uM; α-CD3 and α-CD4 or α-CD3
Protocol: Western blotting was carried out using anti-tyrosine phosphorylation (anti-PY) antibody in order to investigate the mechanism by which the proliferation of T cells is inhibited by capsiate.
Specifically, 5×10^5 of the T cells isolated in Example 14-1 was placed on a 96-well plate and capsiate was treated at concentrations of 5 and 25 uM. After treating with 2 μg/mL α-CD3 and α-CD4, or 2 μg/mL α-CD3, followed by incubation for 10 minutes in ice and then incubation for 10 minutes at 37° C., centrifuge was carried out. The cells obtained from the centrifuge was lysed using RIPA buffer containing 2 mM EDTA, 137 mM NaCl, 20 mM Tris-HCl (pH 8.0), 1 mM sodium vanadate, 10 mM NaF, 1 mM phenylmethanesulfonyl fluoride (PMSF), 1% NP-40, 10% glycerol and protease inhibitor cocktail, and subjected to SDS-PAGE electrophoresis using 10% acrylamide gel in order to isolate the proteins. The isolated proteins were transferred to a nylon membrane and tyrosine phosphorylated proteins were separated using mouse anti-PY antibody (Becton Dickison, USA) and anti-mouse IgG-HRP conjugation antibody (1; 10,000, Zymed) as the secondary antibody. The isolated proteins were detected by ECL (Amersham, USA) and visualized using RAS 3000 imaging system (Fuji Film, Japan).

With `COc1cc(COC(=O)CCCC/C=C/C(C)C)ccc1O` [capsiate] the “p38 (phosphorylation)” value (p38) was “no particular change”, the “UV-induced mRNA expression of MMP-2” value (MMP-2) was “decreased” and the “level of VEGF expression in the mouse skin tissue” value (VEGF) was “decreased”. The “expression of MMP-9 (mRNA) in mouse skin tissue” value (MMP-9) was “decreased”, the “proliferation of T cells induced by α-CD3a and α-CD28” value (T cells) was “significant inhibition” and the “tyrosine phosphorylation in T cells” value (Lck) was “inhibited”.
